In patent US9718828B2 (MERCK SHARP & DOHME CORP., priority 2011, dated 2017) one finds IC50 data, which are given here for 19 compounds.

For orientation: IC50 means the concentration at which inhibition is half-maximal.

Counter-ions that a name gives are not always drawn.

The target of one assay is hBTK (full-length BTK, 6HIS-tag cleaved) (Homo sapiens (Human), UniProt Q06187). The experiment in a line: BTK enzymatic activity, LANCE TR-FRET assay (Assay Method C). The assay is classed as biochemical. Conditions: LANCE TR-FRET, 50 pM hBTK, 25 μM ATP; class 100-1000 is given as ≧100 nM-<1 μM; read-out: IC50 Btk activity values - Assay Method C. (In TR-FRET formats the signal depends on donor and acceptor labels being close together.)
Chain of hBTK (full-length BTK, 6HIS-tag cleaved) (Q06187 whole entry): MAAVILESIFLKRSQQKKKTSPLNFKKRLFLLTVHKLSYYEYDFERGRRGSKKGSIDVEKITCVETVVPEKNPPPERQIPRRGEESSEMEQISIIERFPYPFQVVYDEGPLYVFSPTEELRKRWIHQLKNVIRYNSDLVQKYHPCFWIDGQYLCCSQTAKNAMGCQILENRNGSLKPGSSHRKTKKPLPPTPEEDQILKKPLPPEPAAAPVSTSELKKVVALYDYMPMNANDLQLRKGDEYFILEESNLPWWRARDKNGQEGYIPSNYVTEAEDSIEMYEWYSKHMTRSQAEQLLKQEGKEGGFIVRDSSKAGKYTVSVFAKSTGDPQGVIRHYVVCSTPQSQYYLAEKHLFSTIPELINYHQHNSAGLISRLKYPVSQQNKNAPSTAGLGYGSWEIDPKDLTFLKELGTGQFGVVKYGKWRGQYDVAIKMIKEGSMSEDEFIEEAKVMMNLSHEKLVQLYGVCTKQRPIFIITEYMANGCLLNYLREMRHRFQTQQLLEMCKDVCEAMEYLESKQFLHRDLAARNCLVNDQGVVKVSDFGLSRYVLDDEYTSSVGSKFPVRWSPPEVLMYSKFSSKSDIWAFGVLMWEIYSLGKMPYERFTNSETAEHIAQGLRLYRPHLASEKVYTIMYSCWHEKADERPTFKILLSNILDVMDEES
As to `C[C@H](O)C(=O)N1CCO[C@@H](c2nc(-c3ccc(C(=O)Nc4cc(C(F)(F)F)ccn4)cc3)c3c(N)nccn23)C1` [Example 519, 4-(8-amino-3-{(2R)-4-[(2S)-2-hydroxypropanoyl]morpholin-2-yl}imidazo[1,5-a]pyrazin-1-yl)-N-[4-(trifluoromethyl)pyridin-2-yl]benzamide], the IC50 is under 10 nM.

As to `C[C@@H](O)C(=O)N1CCO[C@@H](c2nc(-c3ccc(C(=O)Nc4cc(C(F)(F)F)ccn4)cc3)c3c(N)nccn23)C1` [Example 520, 4-(8-amino-3-{(2R)-4-[(2R)-2-hydroxypropanoyl]morpholin-2-yl}imidazo[1,5-a]pyrazin-1-yl)-N-[4-(trifluoromethyl)pyridin-2-yl]benzamide], the IC50 was under 10 nM.

`COCC(=O)N1CCO[C@@H](c2nc(-c3ccc(C(=O)Nc4cc(C(F)(F)F)ccn4)cc3)c3c(N)nccn23)C1` [Example 521, 4-{8-amino-3-[(2R)-4-(methoxyacetyl)morpholin-2-yl]imidazo[1,5-a]pyrazin-1-yl}-N-[4-(trifluoromethyl)pyridin-2-yl]benzamide]: the half-maximal inhibitory concentration (IC50) is under 10 nM.

For the compound `CCN1CCO[C@@H](c2nc(-c3ccc(C(=O)Nc4cc(C(F)(F)F)ccn4)cc3)c3c(N)ncc(Cl)n23)C1` [Example 522, 4-{8-amino-5-chloro-3-[(2R)-4-ethylmorpholin-2-yl]imidazo[1,5-a]pyrazin-1-yl}-N-[4-(trifluoromethyl)pyridin-2-yl]benzamide], the IC50 was under 10 nM.

Consider `C[C@H](O)C(=O)N1CCO[C@@H](c2nc(-c3ccc(C(=O)Nc4cc(C(F)(F)F)ccn4)cc3)c3c(N)ncc(Cl)n23)C1` [Example 523, 4-(8-amino-5-chloro-3-{(2R)-4-[(2S)-2-hydroxypropanoyl]morpholin-2-yl}imidazo[1,5-a]pyrazin-1-yl)-N-[4-(trifluoromethyl)pyridin-2-yl]benzamide], for which the half-maximal inhibitory concentration (IC50) was under 10 nM.

With `C[C@@H](O)C(=O)N1CCO[C@@H](c2nc(-c3ccc(C(=O)Nc4cc(C(F)(F)F)ccn4)cc3)c3c(N)ncc(Cl)n23)C1` [Example 524, 4-(8-amino-5-chloro-3-{(2R)-4-[(2R)-2-hydroxypropanoyl]morpholin-2-yl}imidazo[1,5-a]pyrazin-1-yl)-N-[4-(trifluoromethyl)pyridin-2-yl]benzamide], the half-maximal inhibitory concentration (IC50) was under 10 nM.

With `Nc1ncc(Cl)n2c([C@H]3CN(C(=O)C4(O)CC4)CCO3)nc(-c3ccc(C(=O)Nc4cc(C(F)(F)F)ccn4)cc3)c12` [Example 525, 4-(8-amino-5-chloro-3-{(2R)-4-[(1-hydroxycyclopropyl)carbonyl]morpholin-2-yl}imidazo[1,5-a]pyrazin-1-yl)-N-[4-(trifluoromethyl)pyridin-2-yl]benzamide], the IC50 was under 10 nM.

Regarding `Nc1ncc(Cl)n2c([C@H]3CN(CC(F)(F)F)CCO3)nc(-c3ccc(C(=O)Nc4cc(C(F)(F)F)ccn4)cc3)c12` [Example 526, 4-{8-amino-5-chloro-3-[(2R)-4-(2,2,2-trifluoroethyl)morpholin-2-yl]imidazo[1,5-a]pyrazin-1-yl}-N-[4-(trifluoromethyl)pyridin-2-yl]benzamide], the concentration for half-maximal inhibition (IC50) was under 10 nM.

As to `CC1(C(=O)N2CCO[C@@H](c3nc(-c4ccc(C(=O)Nc5cc(C(F)(F)F)ccn5)cc4)c4c(N)ncc(C#N)n34)C2)COC1` [Example 527, 4-(8-amino-5-cyano-3-{(2R)-4-[(3-methyloxetan-3-yl)carbonyl]morpholin-2-yl}imidazo[1,5-a]pyrazin-1-yl)-N-[4-(trifluoromethyl)pyridin-2-yl]benzamide], the IC50 was under 10 nM.

With `COCC(=O)N1CCO[C@@H](c2nc(-c3ccc(C(=O)Nc4cc(C(F)(F)F)ccn4)cc3)c3c(N)ncc(Cl)n23)C1` [Example 528, 4-{8-amino-5-chloro-3-[(2R)-4-(methoxyacetyl)morpholin-2-yl]imidazo[1,5-a]pyrazin-1-yl}-N-[4-(trifluoromethyl)pyridin-2-yl]benzamide], the IC50 is under 10 nM.

For the compound `COCCOCC(=O)N1CCO[C@@H](c2nc(-c3ccc(C(=O)Nc4cc(C(F)(F)F)ccn4)cc3)c3c(N)ncc(Cl)n23)C1` [Example 529, 4-(8-amino-5-chloro-3-{(2R)-4-[(2-methoxyethoxy)acetyl]morpholin-2-yl}imidazo[1,5-a]pyrazin-1-yl)-N-[4-(trifluoromethyl)pyridin-2-yl]benzamide], the IC50 was under 10 nM.

As to `N#CCN1CCO[C@@H](c2nc(-c3ccc(C(=O)Nc4cc(C(F)(F)F)ccn4)cc3)c3c(N)nccn23)C1` [Example 531, 4-{8-amino-3-[(2R)-4-(cyanomethyl)morpholin-2-yl]imidazo[1,5-a]pyrazin-1-yl}-N-[4-(trifluoromethyl)pyridin-2-yl]benzamide], the IC50 was under 10 nM.

In the case of `N#CCCN1CCO[C@@H](c2nc(-c3ccc(C(=O)Nc4cc(C(F)(F)F)ccn4)cc3)c3c(N)nccn23)C1` [Example 532, 4-{8-amino-3-[(2R)-4-(2-cyanoethyl)morpholin-2-yl]imidazo[1,5-a]pyrazin-1-yl}-N-[4-(trifluoromethyl)pyridin-2-yl]benzamide], the half-maximal inhibitory concentration (IC50) is under 10 nM.

For the compound `N#CCN1CCO[C@@H](c2nc(-c3ccc(C(=O)Nc4cc(C(F)(F)F)ccn4)cc3)c3c(N)ncc(Cl)n23)C1` [Example 533, 4-{8-amino-5-chloro-3-[(2R)-4-(cyanomethyl)morpholin-2-yl]imidazo[1,5-a]pyrazin-1-yl}-N-[4-(trifluoromethyl)pyridin-2-yl]benzamide], the IC50 was under 10 nM.

With `CCN1CCO[C@H](c2nc(-c3ccc(C(=O)Nc4cc(C(F)(F)F)ccn4)cc3)c3c(N)nccn23)C1` [Example 534, 4-{8-amino-3-[(2S)-4-ethylmorpholin-2-yl]imidazo[1,5-a]pyrazin-1-yl}-N-[4-(trifluoromethyl)pyridin-2-yl]benzamide], the half-maximal inhibitory concentration (IC50) lay in the range of 10 to 100 nM.

With `Nc1ncc(Cl)n2c([C@H]3CN(CCO)CCO3)nc(-c3ccc(C(=O)Nc4cc(C(F)(F)F)ccn4)cc3)c12` [Example 535, 4-{8-amino-5-chloro-3-[(2R)-4-(2-hydroxyethyl)morpholin-2-yl]imidazo[1,5-a]pyrazin-1-yl}-N-[4-(trifluoromethyl)pyridin-2-yl]benzamide, TFA salt], the 50% inhibitory concentration (IC50) was under 10 nM.

For `COCC(=O)N1CCO[C@@H](c2nc(-c3ccc(C(=O)Nc4cc(C(F)(F)F)ccn4)cc3)c3c(N)ncc(C)n23)C1` [Example 536, 4-{8-amino-3-[(2R)-4-(methoxyacetyl)morpholin-2-yl]-5-methylimidazo[1,5-a]pyrazin-1-yl}-N-[4-(trifluoromethyl)pyridin-2-yl]benzamide, TFA salt], the IC50 is under 10 nM.

Regarding `CCOCC(=O)N1CCO[C@@H](c2nc(-c3ccc(C(=O)Nc4cc(C(F)(F)F)ccn4)cc3)c3c(N)ncc(C)n23)C1` [Example 537, 4-{8-amino-3-[(2R)-4-(ethoxyacetyl)morpholin-2-yl]-5-methylimidazo[1,5-a]pyrazin-1-yl}-N-[4-(trifluoromethyl)pyridin-2-yl]benzamide, TFA salt], the half-maximal inhibitory concentration (IC50) was under 10 nM.

Take `Cc1cnc(N)c2c(-c3ccc(C(=O)Nc4cc(C(F)(F)F)ccn4)cc3)nc([C@H]3CN(C(=O)C(F)F)CCO3)n12` [Example 538, 4-{8-amino-3-[(2R)-4-(difluoroacetyl)morpholin-2-yl]-5-methylimidazo[1,5-a]pyrazin-1-yl}-N-[4-(trifluoromethyl)pyridin-2-yl]benzamide, TFA salt]: the IC50 was under 10 nM.

Staying with this assay, now noted: Table D; Assay Method C (LANCE TR-FRET), 50 pM hBTK, 25 μM ATP; read-out: IC50 BTK activity value.
For the compound `COCC(=O)N1CCO[C@@H](c2nc(-c3ccc(C(=O)Nc4cc(C(F)(F)F)ccn4)cc3)c3c(N)ncc(Cl)n23)C1` [Example 528, 4-{8-amino-5-chloro-3-[(2R)-4-(methoxyacetyl)morpholin-2-yl]imidazo[1,5-a]pyrazin-1-yl}-N-[4-(trifluoromethyl)pyridin-2-yl]benzamide], the half-maximal inhibitory concentration (IC50) was 0.892 nM.
